# Test results from patent US12139520B2 (priority 2020, dated 2024).
# Bridge positions count the residues as written; N and C are the ends. Square brackets hold non-standard residues; d marks the D form. Peptide text beside a SMILES is read from it. Hyp = O=C(O)[C@@H]1C[C@@H](O)CN1; Cit = NC(=O)NCCC[C@H](N)C(=O)O
# Experiments:
# [1] = Physical stability of peptide analogues (Thioflavin T fibrillation); type: physicochemical; details: maximum ThT signal normalized between hAMY maximum and buffer background; 40° C., shaking, four days; pH 7 per table title
# Method in brief: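 Peptides in 50 mM sodium acetate pH 4 or 50 mM sodium phosphate pH 7 were preincubated 1 h, mixed with 4 μM ThT, held at 40° C with 700 rpm shaking before each read. Fluorescence (ex 450/em 480 nm) every 10 min for four days; LOESS-smoothed maximum signal normalized in percent between hAMY and buffer.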
# [2] = biological target: hAM1 receptor (Homo sapiens, UniProt O60895+Q16602); experiment: cAMP assay for in vitro receptor activation, hAM1-R; type: cell-based; details: cAMP assay, hAM1 receptor; read-out: hAM1R EC50
# Method in brief: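 Read-out is intracellular cAMP as a measure of receptor activation. Cells stably overexpressing hAM1 were subcloned to a monoclonal line, then thawed and seeded at 8000 cells/well in DPBS with 0.05% casein and the phosphodiesterase inhibitor IBMX at 0.5 mM.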
# [3] = biological target: T1, hAMY3 receptor (Homo sapiens, UniProt O60896+P30988); experiment: cAMP assay for in vitro receptor activation, hAMY3-R; type: cell-based; details: cAMP assay, hAMY3 receptor; read-out: hAMY3R EC50
# T1 sequence (P30988 25-474): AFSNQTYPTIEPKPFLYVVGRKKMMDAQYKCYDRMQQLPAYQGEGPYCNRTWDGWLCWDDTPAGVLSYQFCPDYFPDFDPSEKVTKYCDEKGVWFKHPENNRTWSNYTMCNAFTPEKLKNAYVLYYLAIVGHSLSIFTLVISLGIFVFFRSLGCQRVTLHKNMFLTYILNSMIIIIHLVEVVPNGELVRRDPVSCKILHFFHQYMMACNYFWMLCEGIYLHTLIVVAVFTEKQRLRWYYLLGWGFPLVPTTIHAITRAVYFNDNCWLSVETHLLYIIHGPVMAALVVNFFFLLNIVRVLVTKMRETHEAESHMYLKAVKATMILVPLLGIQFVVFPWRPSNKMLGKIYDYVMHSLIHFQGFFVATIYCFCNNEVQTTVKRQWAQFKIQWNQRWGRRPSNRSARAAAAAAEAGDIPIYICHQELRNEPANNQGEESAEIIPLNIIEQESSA
# T1 sequence (O60896 24-148 partner): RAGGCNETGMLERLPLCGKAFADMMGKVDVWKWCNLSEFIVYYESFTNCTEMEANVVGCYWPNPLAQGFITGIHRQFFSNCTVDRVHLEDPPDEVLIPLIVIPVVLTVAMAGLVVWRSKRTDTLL
# Method in brief: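 Receptor activation was measured as cAMP accumulation in a monoclonal cell line stably overexpressing hAMY3. Stimulation with graded doses lasted 30 min at room temperature in the presence of 0.5 mM IBMX, with human amylin as positive control.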
# Chain of hAM1 receptor (Q16602 23-461): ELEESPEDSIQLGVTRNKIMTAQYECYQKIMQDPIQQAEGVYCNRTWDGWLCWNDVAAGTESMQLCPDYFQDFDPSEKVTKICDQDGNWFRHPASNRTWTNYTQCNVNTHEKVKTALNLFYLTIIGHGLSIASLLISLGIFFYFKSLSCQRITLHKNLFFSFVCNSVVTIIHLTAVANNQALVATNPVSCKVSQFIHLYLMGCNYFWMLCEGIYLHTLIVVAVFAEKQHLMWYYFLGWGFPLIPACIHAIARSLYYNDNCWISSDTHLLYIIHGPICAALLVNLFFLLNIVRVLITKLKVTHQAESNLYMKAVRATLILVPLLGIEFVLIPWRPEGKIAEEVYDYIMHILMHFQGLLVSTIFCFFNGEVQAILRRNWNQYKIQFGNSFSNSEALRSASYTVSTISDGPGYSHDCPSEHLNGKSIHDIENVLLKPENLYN
# Chain of hAM1 receptor (O60895 43-175 partner): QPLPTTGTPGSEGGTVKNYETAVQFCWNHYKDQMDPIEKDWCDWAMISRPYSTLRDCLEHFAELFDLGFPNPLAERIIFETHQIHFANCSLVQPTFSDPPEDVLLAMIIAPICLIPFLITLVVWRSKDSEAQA
SMILES,Max ThT signal (%) [1] [%],EC50 [2] [nM],EC50 [3] [nM]
CC[C@H](C)[C@H](NC(=O)[C@H](CCC(N)=O)NC(=O)[C@H](Cc1c[nH]cn1)NC(=O)[C@H](C)NC(=O)[C@H](CC(C)C)NC(=O)[C@H](CCCNC(N)=O)NC(=O)[C@H](CCC(N)=O)NC(=O)[C@@H](NC(=O)[C@@H](NC(=O)[C@@H]1CSSC[C@H](NC(=O)CN)C(=O)N[C@@H](CCCNC(=N)N)C(=O)N[C@@H]([C@@H](C)O)C(=O)NCC(=O)N[C@@H]([C@@H](C)O)C(=O)N1)[C@@H](C)O)C(C)C)C(=O)N[C@@H](Cc1ccc(O)cc1)C(=O)N[C@@H](CCC(N)=O)C(=O)N[C@@H](Cc1ccccc1)C(=O)N[C@H](C(=O)N[C@@H](CC(=O)O)C(=O)N[C@@H](CCCCN)C(=O)N[C@@H](CC(=O)O)C(=O)N[C@@H](CCCCN)C(=O)N[C@@H](CC(=O)O)C(=O)N[C@@H](CC(N)=O)C(=O)N[C@H](C(=O)N[C@@H](C)C(=O)N1CCC[C@H]1C(=O)N[C@@H](CCCNC(=N)N)C(=O)N[C@@H](CO)C(=O)N[C@@H](CCCCN)C(=O)N[C@H](C(=O)NCC(=O)N1CCC[C@H]1C(=O)N[C@@H](CC(N)=O)C(=O)NCC(=O)N1C[C@H](O)C[C@H]1C(N)=O)C(C)C)C(C)C)[C@@H](C)O [compound 290] (H-GCRTGTCTVQ[Cit]LAHQIYQFTDKDKDNVAPRSKVGPNG[Hyp]-NH2; disulfide 2-7; N-terminus assumed),17.300,> 5000,0.047
CC[C@H](C)[C@H](NC(=O)[C@H](CCC(N)=O)NC(=O)[C@H](Cc1c[nH]cn1)NC(=O)[C@H](C)NC(=O)[C@H](CC(C)C)NC(=O)[C@H](CCCNC(N)=O)NC(=O)[C@H](CCC(N)=O)NC(=O)[C@@H](NC(=O)[C@@H](NC(=O)[C@@H]1CSSC[C@H](NC(=O)CN)C(=O)N[C@@H](CCCNC(=N)N)C(=O)N[C@@H](Cc2ccccc2)C(=O)NCC(=O)N[C@@H]([C@@H](C)O)C(=O)N1)[C@@H](C)O)C(C)C)C(=O)N[C@@H](Cc1ccc(O)cc1)C(=O)N[C@@H](CCC(N)=O)C(=O)N[C@@H](Cc1ccccc1)C(=O)N[C@H](C(=O)N[C@@H](CC(=O)O)C(=O)N[C@@H](CCCCN)C(=O)N[C@@H](CC(=O)O)C(=O)N[C@@H](CCCCN)C(=O)N[C@@H](CC(=O)O)C(=O)N[C@@H](CC(N)=O)C(=O)N[C@H](C(=O)N[C@@H](C)C(=O)N1CCC[C@H]1C(=O)N[C@@H](CCCNC(=N)N)C(=O)N[C@H](C(=O)N[C@@H](CC(N)=O)C(=O)N[C@H](C(=O)N[C@@H](CO)C(=O)N1CCC[C@H]1C(=O)N[C@@H](CCC(N)=O)C(=O)NCC(=O)N1C[C@H](O)C[C@H]1C(N)=O)[C@@H](C)CC)[C@@H](C)O)C(C)C)[C@@H](C)O [compound 291] (H-GCRFGTCTVQ[Cit]LAHQIYQFTDKDKDNVAPRTNISPQG[Hyp]-NH2; disulfide 2-7),19.200,> 5000,0.064
CC[C@H](C)[C@H](NC(=O)[C@H](CCC(N)=O)NC(=O)[C@H](Cc1c[nH]cn1)NC(=O)[C@H](C)NC(=O)[C@H](CC(C)C)NC(=O)[C@H](CCCNC(N)=O)NC(=O)[C@H](CCC(N)=O)NC(=O)[C@@H](NC(=O)[C@@H](NC(=O)[C@@H]1CSSC[C@H](NC(=O)CN)C(=O)N[C@@H](CCCNC(=N)N)C(=O)N[C@@H](Cc2ccccc2)C(=O)NCC(=O)N[C@@H]([C@@H](C)O)C(=O)N1)[C@@H](C)O)C(C)C)C(=O)N[C@@H](Cc1ccc(O)cc1)C(=O)N[C@@H](CCC(N)=O)C(=O)N[C@@H](Cc1ccccc1)C(=O)N[C@H](C(=O)N[C@@H](CC(=O)O)C(=O)N[C@@H](CCCCN)C(=O)N[C@@H](CC(=O)O)C(=O)N[C@@H](CCCCN)C(=O)N[C@@H](CC(=O)O)C(=O)N[C@@H](CC(N)=O)C(=O)N[C@H](C(=O)N[C@@H](C)C(=O)N1CCC[C@H]1C(=O)N[C@@H](CCCNC(=N)N)C(=O)N[C@@H](CO)C(=O)N[C@@H](CC(N)=O)C(=O)N[C@H](C(=O)N[C@@H](CO)C(=O)N1CCC[C@H]1C(=O)N[C@@H](CCC(N)=O)C(=O)NCC(=O)N1C[C@H](O)C[C@H]1C(N)=O)C(C)C)C(C)C)[C@@H](C)O [compound 293] (H-GCRFGTCTVQ[Cit]LAHQIYQFTDKDKDNVAPRSNVSPQG[Hyp]-NH2; disulfide 2-7; N-terminus assumed),24.200,> 5000,0.063
CC[C@H](C)[C@H](NC(=O)[C@H](CCC(N)=O)NC(=O)[C@H](Cc1c[nH]cn1)NC(=O)[C@H](C)NC(=O)[C@H](CC(C)C)NC(=O)[C@H](CCCNC(N)=O)NC(=O)[C@H](CCC(N)=O)NC(=O)[C@@H](NC(=O)[C@@H](NC(=O)[C@@H]1CSSC[C@H](NC(=O)CN)C(=O)N[C@@H](CCCNC(=N)N)C(=O)N[C@@H](Cc2ccccc2)C(=O)NCC(=O)N[C@@H]([C@@H](C)O)C(=O)N1)[C@@H](C)O)C(C)C)C(=O)N[C@@H](Cc1ccc(O)cc1)C(=O)N[C@@H](CCC(N)=O)C(=O)N[C@@H](Cc1ccccc1)C(=O)N[C@H](C(=O)N[C@@H](CC(=O)O)C(=O)N[C@@H](CCCCN)C(=O)N[C@@H](CC(=O)O)C(=O)N[C@@H](CCCCN)C(=O)N[C@@H](CC(=O)O)C(=O)N[C@@H](CC(N)=O)C(=O)N[C@H](C(=O)N[C@@H](C)C(=O)N1CCC[C@H]1C(=O)N[C@@H](CCCNC(=N)N)C(=O)N[C@H](C(=O)N[C@@H](CCCCN)C(=O)N[C@H](C(=O)N[C@@H](CO)C(=O)N1CCC[C@H]1C(=O)N[C@@H](CCC(N)=O)C(=O)NCC(=O)N1C[C@H](O)C[C@H]1C(N)=O)[C@@H](C)CC)[C@@H](C)O)C(C)C)[C@@H](C)O [compound 294] (H-GCRFGTCTVQ[Cit]LAHQIYQFTDKDKDNVAPRTKISPQG[Hyp]-NH2; disulfide 2-7),16.850,> 5000,0.045
CC[C@H](C)[C@H](NC(=O)[C@H](CC(N)=O)NC(=O)[C@H](CO)NC(=O)[C@H](CCCNC(=N)N)NC(=O)[C@@H]1CCCN1C(=O)[C@H](C)NC(=O)[C@@H](NC(=O)[C@H](CC(N)=O)NC(=O)[C@H](CC(=O)O)NC(=O)[C@H](CCCCN)NC(=O)[C@H](CC(=O)O)NC(=O)[C@H](CCCCN)NC(=O)[C@H](CC(=O)O)NC(=O)[C@@H](NC(=O)[C@H](Cc1ccccc1)NC(=O)[C@H](CCC(N)=O)NC(=O)[C@H](Cc1ccc(O)cc1)NC(=O)[C@@H](NC(=O)[C@H](CCC(N)=O)NC(=O)[C@H](Cc1c[nH]cn1)NC(=O)[C@H](C)NC(=O)[C@H](CC(C)C)NC(=O)[C@H](CCCNC(N)=O)NC(=O)[C@H](CCC(N)=O)NC(=O)[C@@H](NC(=O)[C@@H](NC(=O)[C@@H]1CSSC[C@H](NC(=O)CN)C(=O)N[C@@H](CCCNC(=N)N)C(=O)N[C@@H]([C@@H](C)O)C(=O)NCC(=O)N[C@@H]([C@@H](C)O)C(=O)N1)[C@@H](C)O)C(C)C)[C@@H](C)CC)[C@@H](C)O)C(C)C)C(=O)NCC(=O)N1CCC[C@H]1C(=O)N[C@@H](CC(N)=O)C(=O)NCC(=O)N1C[C@H](O)C[C@H]1C(N)=O [compound 297] (H-GCRTGTCTVQ[Cit]LAHQIYQFTDKDKDNVAPRSNIGPNG[Hyp]-NH2; disulfide 2-7; N-terminus assumed),27.500,> 5000,0.026
CC[C@H](C)[C@H](NC(=O)[C@H](CCC(N)=O)NC(=O)[C@H](Cc1c[nH]cn1)NC(=O)[C@H](C)NC(=O)[C@H](CC(C)C)NC(=O)[C@H](CCCNC(N)=O)NC(=O)[C@H](CCC(N)=O)NC(=O)[C@@H](NC(=O)[C@@H](NC(=O)[C@@H]1CSSC[C@H](NC(=O)CN)C(=O)N[C@@H](CCCNC(=N)N)C(=O)N[C@@H](Cc2ccccc2)C(=O)NCC(=O)N[C@@H]([C@@H](C)O)C(=O)N1)[C@@H](C)O)C(C)C)C(=O)N[C@@H](Cc1ccc(O)cc1)C(=O)N[C@@H](CCC(N)=O)C(=O)N[C@@H](Cc1ccccc1)C(=O)N[C@H](C(=O)N[C@@H](CC(=O)O)C(=O)N[C@@H](CCCCN)C(=O)N[C@@H](CC(=O)O)C(=O)N[C@@H](CCCCN)C(=O)N[C@@H](CC(=O)O)C(=O)N[C@@H](CC(N)=O)C(=O)N[C@H](C(=O)N[C@@H](C)C(=O)N1CCC[C@H]1C(=O)N[C@@H](CCCNC(=N)N)C(=O)N[C@@H](CO)C(=O)N[C@@H](CC(N)=O)C(=O)N[C@H](C(=O)N[C@@H](CO)C(=O)N1CCC[C@H]1C(=O)N[C@@H](CCC(N)=O)C(=O)NCC(=O)N1C[C@H](O)C[C@H]1C(N)=O)[C@@H](C)CC)C(C)C)[C@@H](C)O [compound 300] (H-GCRFGTCTVQ[Cit]LAHQIYQFTDKDKDNVAPRSNISPQG[Hyp]-NH2; disulfide 2-7; N-terminus assumed),17.850,> 5000,0.076
